Toxic doses and inconclusive results are not listed. Rule for the calls: active = survival T/C of 150% or more; inactive = T/C below 125% in these data.
Tested on: P388 leukemia ip, CD2F1 mice, survival T/C
Experiment: NCI In Vivo Anticancer Drug Screen. Data for tumor model P388 Leukemia (intraperitoneal) in CD2F1 (CDF1) mice
Details: endpoint: median survival time, higher = longer survival
Summary of the method: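 Mice carrying the transplanted tumor received test compound or vehicle. Survival was recorded in each group, and the value is the treated-group measurement divided by that of the vehicle-treated control group.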

[1] = dose: 60.0 mg/kg/injection, schedule: Q01DX005 (ip), vehicle: saline with Tween-80
[2] = dose: 120.0 mg/kg/injection, schedule: Q01DX005 (ip), vehicle: saline with Tween-80
[3] = dose: 240.0 mg/kg/injection, schedule: Q01DX005 (ip), vehicle: saline with Tween-80
[4] = dose: 60.0 mg/kg/injection, schedule: Q01DX005 (ip), vehicle: Klucel (hydroxypropylcellulose) (HPC)
[5] = dose: 120.0 mg/kg/injection, schedule: Q01DX005 (ip), vehicle: Klucel (hydroxypropylcellulose) (HPC)
[6] = dose: 240.0 mg/kg/injection, schedule: Q01DX005 (ip), vehicle: Klucel (hydroxypropylcellulose) (HPC)
[7] = dose: 100.0 mg/kg/injection, schedule: Q04DX003 (ip), vehicle: saline with Tween-80

Measured: T/C

COC(=O)C1CC23C4=C(CCC41)CCC1CN4CC(C)C(CC(OC(C)=O)C12COC(C)=O)C43O (stereo unspecified)
inactive: dose: 0.78 mg/kg/injection, schedule: Q01DX009 (ip), vehicle: suspension in saline 108 % of control | dose: 1.56 mg/kg/injection, schedule: Q01DX009 (ip), vehicle: suspension in saline 104 % of control | dose: 3.13 mg/kg/injection, schedule: Q01DX009 (ip), vehicle: suspension in saline 100 % of control | dose: 6.25 mg/kg/injection, schedule: Q01DX009 (ip), vehicle: suspension in saline 104 % of control

CSC(=S)n1nc(-c2cccs2)c(N=Nc2ccc(Cl)cc2)c1C(F)(F)F
inactive: [1] 92 % of control | [2] 100 % of control | [3] 111 % of control

CC12C=CC(C(C(=O)O)C1=O)C2(C)C (stereo unspecified)
inactive: dose: 100.0 mg/kg/injection, schedule: Q04DX002 (ip), vehicle: saline with Tween-80 107 % of control | dose: 200.0 mg/kg/injection, schedule: Q04DX002 (ip), vehicle: saline with Tween-80 103 % of control

O=C(CC1(O)C(=O)Nc2ccccc21)c1cccc([N+](=O)[O-])c1 (stereo unspecified)
inactive: [4] 97 % of control | [5] 103 % of control | [6] 99 % of control

[N-]=[N+]=[N-]
inactive: dose: 3.0 mg/kg/injection, schedule: Q01DX009 (ip), vehicle: saline with Tween-80 100 % of control | dose: 6.0 mg/kg/injection, schedule: Q01DX009 (ip), vehicle: saline with Tween-80 105 % of control

CCCCOCN1C(=O)NC(c2ccccc2)(c2ccccc2)C1=O
inactive: [4] 94 % of control | [5] 94 % of control | [6] 94 % of control

C1CC[N-]CC1.C1CC[N-]CC1.C1CC[N-]CC1.C1CC[N-]CC1.[Cl][Co][Cl]
inactive: dose: 25.0 mg/kg/injection, schedule: Q04DX003 (ip), vehicle: saline with Tween-80 100 % of control | dose: 33.0 mg/kg/injection, schedule: Q01DX009 (ip), vehicle: saline with Tween-80 91 % of control | [7] 118 % of control

COC(=O)c1cc(-c2ccc(C)cc2)c2c(=O)n(-c3ccccc3)[nH]c2n1
inactive: [1] 100 % of control | [2] 100 % of control | [3] 97 % of control

CCCCCCCCCCCCCCCC(=O)N(CCCN(C)C)C1CCC(N(CCCN(C)C)C(=O)CCCCCCCCCCCCCCC)CC1 (stereo unspecified)
inactive: dose: 3.13 mg/kg/injection, schedule: Q01DX009 (ip), vehicle: saline sonified 90 % of control | dose: 6.25 mg/kg/injection, schedule: Q01DX009 (ip), vehicle: saline sonified 90 % of control | dose: 12.5 mg/kg/injection, schedule: Q01DX009 (ip), vehicle: saline sonified 90 % of control

CC(C)(C)C(=O)C=C(C(F)(F)F)C(F)(F)F
inactive: dose: 6.25 mg/kg/injection, schedule: Q01DX009 (ip), vehicle: saline 91 % of control | dose: 12.5 mg/kg/injection, schedule: Q01DX009 (ip), vehicle: saline 86 % of control | dose: 25.0 mg/kg/injection, schedule: Q01DX009 (ip), vehicle: saline 113 % of control

NNC(=O)C(O)C(O)C(=O)NN (stereo unspecified)
inactive: dose: 30.0 mg/kg/injection, schedule: Q01DX005 (ip), vehicle: saline 97 % of control | dose: 30.0 mg/kg/injection, schedule: Q01DX009 (ip), vehicle: saline 103 % of control | dose: 60.0 mg/kg/injection, schedule: Q01DX005 (ip), vehicle: saline 100 % of control | dose: 60.0 mg/kg/injection, schedule: Q01DX009 (ip), vehicle: saline 97 % of control | dose: 120.0 mg/kg/injection, schedule: Q01DX005 (ip), vehicle: saline 94 % of control | dose: 120.0 mg/kg/injection, schedule: Q01DX009 (ip), vehicle: saline 105 % of control

CCCC(=O)Nc1ccc([N+](=O)[O-])cc1OC
inactive: [7] 88 % of control | dose: 200.0 mg/kg/injection, schedule: Q04DX003 (ip), vehicle: saline with Tween-80 100 % of control | dose: 400.0 mg/kg/injection, schedule: Q04DX003 (ip), vehicle: saline with Tween-80 100 % of control

CC(=O)Nc1ccc(S(=O)(=O)Nc2c(N)[nH]c(=S)[nH]c2=O)cc1
inactive: [1] 97 % of control | [2] 98 % of control | [3] 97 % of control
